Measurements from ChEMBL document CHEMBL4414583, “Octahydro-Protoberberine and Protoemetine-Type Alkaloids from the Stems of Alangium salviifolium and Their Cytotoxicity” (J Nat Prod, 2019).

Tests used:
Assay type in all cases: functional, cell-based
SK-OV-3 = assay: Cytotoxicity against human SKOV3 cells assessed as reduction in cell viability incubated for 72 hrs by MTT assay; conditions: SK-OV-3, 72 h
HeLa = assay: Cytotoxicity against human HeLa cells assessed as reduction in cell viability incubated for 72 hrs by MTT assay
A549 = assay: Cytotoxicity against human A549 cells assessed as reduction in cell viability incubated for 72 hrs by MTT assay; conditions: A549, 72 h

Compound	IC50 (SK-OV-3) [µM]	IC50 (HeLa) [µM]	IC50 (A549) [µM]
CC[C@H]1CN2CCc3cc(OC)c(OC)cc3[C@@H]2C[C@@H]1C[C@H]1NCCc2c1[nH]c1ccccc21	0.003	0.1	–
CC[C@H]1CN2CCc3c(cc(OC)c(OC)c3O)[C@@H]2C[C@@H]1C[C@H]1NCCc2c1[nH]c1ccccc21	0.2	8.2	3
CC[C@H]1CN2CCc3c(cc(OC)c(OC)c3O)[C@@H]2C[C@@H]1C/C=[N+](/[O-])CC	5.2	> 10	> 10
COc1cc2c(cc1O)[C@@H]1C[C@@H]3CC=CC[C@H]3CN1CC2	13.9	9.2	12.5
CC[C@H]1CN2CCc3cc(OC)c(O)cc3[C@@H]2C[C@@H]1CCO	0.06	0.01	0.2
CC[C@H]1CN2CCc3cc(OC)c(OC)cc3[C@@H]2C[C@@H]1CCO	0.1	1.2	0.3
CC[C@H]1CN2CCc3c(cc(OC)c(OC)c3O)[C@@H]2C[C@@H]1CCO	3.6	5.3	2.1
CO[C@@H]1C=C[C@@]23c4cc5c(cc4CN(C[C@@H]2O)[C@H]3C1)OCO5 [(+)-HAEMANTHAMINE]	3.7	1.3	3
CC[C@H]1CN2CCc3cc(OC)c(OC)cc3[C@@H]2C[C@@H]1C[C@H]1NCCc2cc(O)c(OC)cc21 [CEPHAELINE]	0.1	7.6	3
CC[C@H]1CN2CCc3cc(OC)c(OC)cc3[C@@H]2C[C@@H]1C[C@@H]1NCCc2cc(O)c(OC)cc21 [ISOCEPHAELINE]	3.9	9.4	2.7
CC[C@H]1CN2CCc3cc(OC)c(OC)cc3[C@@H]2C[C@@H]1C[C@H]1NCCc2c1[nH]c1ccc(O)cc21 [TUBULOSINE]	0.4	> 10	2.1
